From patent US20220233549A1, “METHOD FOR ALPHAVIRUS INHIBITION” (priority 2019, published 2022)

Test system: CHIKV 181/clone25
Test: CHIKV cytopathic effect (CPE) protection assay in Vero cells
Format: cell-based
Settings: Chikungunya virus; CHIKV 181/clone25, Vero cells, MOI=0.01, 48 hrs, protection from CPE (crystal violet, absorbance 595nm)

`CN1C(=O)C(CC(=O)NCc2ccccn2)Sc2ncccc21` (stereo not shown) [Example 12, 2-(1-methyl-2-oxo-2,3-dihydro-1H-pyrido[2,3-b][1,4]thiazin-3-yl)-N-(pyridin-2-ylmethyl)acetamide] and `CN1C(=O)C(CC(=O)NCc2cccnc2)Sc2ncccc21` (stereo not shown) [Example 13, 2-(1-methyl-2-oxo-2,3-dihydro-1H-pyrido[2,3-b][1,4]thiazin-3-yl)-N-(pyridin-3-ylmethyl)acetamide] cannot be ordered by EC50: over 100 µM for the first, over 100 µM for the second.

`CN1C(=O)C(CC(=O)N2CCCC2)Sc2ncccc21` (stereo not shown) [Example 37, 1-methyl-3-(2-oxo-2-(pyrrolidin-1-yl)ethyl)-1H-pyrido[2,3-b][1,4]thiazin-2(3H)-one] and `CN1C(=O)C(CC(=O)N2CCCCC2)Sc2ncccc21` (stereo not shown) [Example 38, 1-methyl-3-(2-oxo-2-(piperidin-1-yl)ethyl)-1H-pyrido[2,3-b][1,4]thiazin-2(3H)-one] cannot be ordered by EC50: over 100 µM for the first, over 100 µM for the second.

Compared with `CC(C)CCNC(=O)CC1Sc2ncccc2N(C)C1=O` (stereo not shown) [Example 29, N-isopentyl-2-(1-methyl-2-oxo-2,3-dihydro-1H-pyrido[2,3-b][1,4]thiazin-3-yl)acetamide], `COCCNC(=O)CC1Sc2ncccc2N(C)C1=O` (stereo not shown) [Example 18, N-(2-methoxyethyl)-2-(1-methyl-2-oxo-2,3-dihydro-1H-pyrido[2,3-b][1,4]thiazin-3-yl)acetamide] is higher in EC50: under 10 µM for the first, over 100 µM for the second. The first is the more potent here.

`CC(NC(=O)CC1Sc2ncccc2N(C)C1=O)c1cccnc1` (stereo not shown) [Example 39, 2-(1-methyl-2-oxo-2,3-dihydro-1H-pyrido[2,3-b][1,4]thiazin-3-yl)-N-(1-(pyridin-3-yl)ethyl)acetamide] and `CN1C(=O)C(CC(=O)NCc2ccncc2)Sc2ncccc21` (stereo not shown) [Example 14, 2-(1-methyl-2-oxo-2,3-dihydro-1H-pyrido[2,3-b][1,4]thiazin-3-yl)-N-(pyridin-4-ylmethyl)acetamide] cannot be ordered by EC50: over 100 µM for the first, over 100 µM for the second.

First: CN(C)CCCNC(=O)CC1Sc2ncccc2N(C)C1=O (stereo not shown) [Example 28, N-(3-(dimethylamino)propyl)-2-(1-methyl-2-oxo-2,3-dihydro-1H-pyrido[2,3-b][1,4]thiazin-3-yl)acetamide]
Second: CN1C(=O)C(CC(=O)NCc2ccccc2)Sc2ncccc21 (stereo not shown) [Example 15, N-benzyl-2-(1-methyl-2-oxo-2,3-dihydro-1H-pyrido[2,3-b][1,4]thiazin-3-yl)acetamide]
The EC50 of the first is higher: over 100 µM for the first, 10 to 49.9 µM for the second.

Compared with `CN1C(=O)C(CC(=O)NCc2ccc(F)cc2)Sc2ncccc21` (stereo not shown) [Example 24, N-(4-fluorobenzyl)-2-(1-methyl-2-oxo-2,3-dihydro-1H-pyrido[2,3-b][1,4]thiazin-3-yl)acetamide], `O=C(CC1Sc2ncccc2NC1=O)NCc1ccc(Cl)cc1` (stereo not shown) [Example 53, N-(4-chlorobenzyl)-2-(2-oxo-2,3-dihydro-1H-pyrido[2,3-b][1,4]thiazin-3-yl)acetamide] is higher in EC50: under 10 µM for the first, 10 to 49.9 µM for the second.

First: O=C(CC1Sc2ncccc2NC1=O)NCC1CCC(F)(F)CC1 (stereo not shown) [Example 60, N-((4,4-difluorocyclohexyl)methyl)-2-(2-oxo-2,3-dihydro-1H-pyrido[2,3-b][1,4]thiazin-3-yl)acetamide]
Second: O=C(CC1Sc2ncccc2NC1=O)NCC1CCOCC1 (stereo not shown) [Example 48, 2-(2-oxo-2,3-dihydro-1H-pyrido[2,3-b][1,4]thiazin-3-yl)-N-((tetrahydro-2H-pyran-4-yl)methyl)acetamide]
The EC50 of the first is lower: 10 to 49.9 µM for the first, over 100 µM for the second.

`O=C(CC1Sc2ccncc2NC1=O)NCC1CCCCC1` (stereo not shown) [Example 84, N-(cyclohexylmethyl)-2-(3-oxo-3,4-dihydro-2H-pyrido[4,3-b][1,4]thiazin-2-yl)acetamide] and `O=C(CC1Sc2cnccc2NC1=O)NCC1CCCCC1` (stereo not shown) [Example 83, N-(cyclohexylmethyl)-2-(2-oxo-2,3-dihydro-1H-pyrido[3,4-b][1,4]thiazin-3-yl)acetamide] cannot be ordered by EC50: over 100 µM for the first, over 100 µM for the second.

Compared with `COCC1(CNC(=O)CC2Sc3ncccc3NC2=O)CCCCC1` (stereo not shown) [Example 82, N-((1-(methoxymethyl)cyclohexyl)meth-yl)-2-(2-oxo-2,3-dihydro-1H-pyrido[2,3-b][1,4]thiazin-3-yl)acetamide], `CC1(CNC(=O)CC2Sc3ncccc3NC2=O)CCCCC1` (stereo not shown) [Example 66, N-((1-methylcyclohexyl)methyl)-2-(2-oxo-2,3-dihydro-1H-pyrido[2,3-b][1,4]thiazin-3-yl)acetamide] is lower in EC50: 50 to 99.9 µM for the first, under 10 µM for the second. The second is the more potent here.

Compared with `O=C(CC1Sc2ncccc2NC1=O)NCC1=CCCCC1` (stereo not shown) [Example 85, N-(cyclohex-1-en-1-ylmethyl)-2-(2-oxo-2,3-dihydro-1H-pyrido[2,3-b][1,4]thiazin-3-yl)acetamide], `O=C(CC1Sc2ncccc2NC1=O)NCC1CCCCC1` (stereo not shown) [Example 2, N-(cyclohexylmethyl)-2-(2-oxo-2,3-dihydro-1H-pyrido[2,3-b][1,4]thiazin-3-yl)acetamide] is lower in EC50: 10 to 49.9 µM for the first, under 10 µM for the second.

`CN(Cc1ccccc1)C(=O)CC1Sc2ncccc2N(C)C1=O` (stereo not shown) [Example 27, N-benzyl-N-methyl-2-(1-methyl-2-oxo-2,3-dihydro-1H-pyrido[2,3-b][1,4]thiazin-3-yl)acetamide] and `CCN1C(=O)C(CC(=O)NCc2ccccc2)Sc2ncccc21` (stereo not shown) [Example 43, N-benzyl-2-(1-ethyl-2-oxo-2,3-dihydro-1H-pyrido[2,3-b][1,4]thiazin-3-yl)acetamide] cannot be ordered by EC50: over 100 µM for the first, over 100 µM for the second.

Compared with `O=C(CC1Sc2ncccc2NC1=O)NCc1cc(F)c(F)c(F)c1` (stereo not shown) [Example 51, 2-(2-oxo-2,3-dihydro-1H-pyrido[2,3-b][1,4]thiazin-3-yl)-N-(3,4,5-trifluorobenzyl)acetamide], `O=C(CC1Sc2ncccc2NC1=O)NCc1cc(F)cc(F)c1` (stereo not shown) [Example 52, N-(3,5-difluorobenzyl)-2-(2-oxo-2,3-dihydro-1H-pyrido[2,3-b][1,4]thiazin-3-yl)acetamide] is higher in EC50: 50 to 99.9 µM for the first, over 100 µM for the second.

First: CCCOC1(CNC(=O)CC2Sc3ncccc3NC2=O)CCCCC1 (stereo not shown) [Example 81, 2-(2-oxo-2,3-dihydro-1H-pyrido[2,3-b][1,4]thiazin-3-yl)-N-((1-propoxycyclohexyl)methyl)ace-tamide]
Second: NC1(CNC(=O)CC2Sc3ncccc3NC2=O)CCCCC1 (stereo not shown) [Example 80, N-((1-aminocyclohexyl)methyl)-2-(2-oxo-2,3-dihydro-1H-pyrido[2,3-b][1,4]thiazin-3-yl)acetamide]
The EC50 of the first is lower: 10 to 49.9 µM for the first, over 100 µM for the second. The first is the more potent here.

`CCC(CC)CNC(=O)CC1Sc2ncccc2NC1=O` (stereo not shown) [Example 61, N-(2-ethylbutyl)-2-(2-oxo-2,3-dihydro-1H-pyrido[2,3-b][1,4]thiazin-3-yl)acetamide] and `CCCCCNC(=O)CC1Sc2ncccc2NC1=O` (stereo not shown) [Example 71, 2-(2-oxo-2,3-dihydro-1H-pyrido[2,3-b][1,4]thiazin-3-yl)-N-pentylacetamide] fall in the same range of EC50: 10 to 49.9 µM for the first, 10 to 49.9 µM for the second.

Compared with `CC(C)(C)CCNC(=O)CC1Sc2ncccc2NC1=O` (stereo not shown) [Example 64, N-(3,3-dimethylbutyl)-2-(2-oxo-2,3-dihydro-1H-pyrido[2,3-b][1,4]thiazin-3-yl)acetamide], `CC(C)(C)CCCNC(=O)CC1Sc2ncccc2NC1=O` (stereo not shown) [Example 68, N-(4,4-dimethylpentyl)-2-(2-oxo-2,3-dihydro-1H-pyrido[2,3-b][1,4]thiazin-3-yl)acetamide] is lower in EC50: over 100 µM for the first, 10 to 49.9 µM for the second. The second is the more potent here.

Going from `CCN1C(=O)C(CC(=O)NCC2CC2)Sc2ncccc21` (stereo not shown) [Example 46, N-(cyclopropylmethyl)-2-(1-ethyl-2-oxo-2,3-dihydro-1H-pyrido[2,3-b][1,4]thiazin-3-yl)acetamide] to `CN1C(=O)[C@@H](CC(=O)NCC2CCCCC2)Sc2ncccc21` [Example 6, (R)-N-(cyclohexylmethyl)-2-(1-methyl-2-oxo-2,3-dihydro-1H-pyrido[2,3-b][1,4]thiazin-3-yl)acetamide], the EC50 falls from over 100 µM to under 10 µM.

Compared with `O=C(CC1Sc2ncccc2NC1=O)NCCC1CCCCC1` (stereo not shown) [Example 58, N-(2-cyclohexylethyl)-2-(2-oxo-2,3-dihydro-1H-pyrido[2,3-b][1,4]thiazin-3-yl)acetamide], `O=C(CC1Sc2ncccc2NC1=O)NCCC(F)(F)F` (stereo not shown) [Example 74, 2-(2-oxo-2,3-dihydro-1H-pyrido[2,3-b][1,4]thiazin-3-yl)-N-(3,3,3-trifluoropropyl)acetamide] is higher in EC50: 10 to 49.9 µM for the first, over 100 µM for the second. The first is the more potent here.

Compared with `O=C(CC1Sc2ncccc2NC1=O)NCc1cccc(F)c1` (stereo not shown) [Example 55, N-(3-fluorobenzyl)-2-(2-oxo-2,3-dihydro-1H-pyrido[2,3-b][1,4]thiazin-3-yl)acetamide], `O=C(CC1Cc2ncccc2NC1=O)NCc1ccc(F)cc1` (stereo not shown) [Example 90, N-(4-fluorobenzyl)-2-(2-oxo-1,2,3,4-tetrahydro-1,5-naphthyridin-3-yl)acetamide] is lower in EC50: over 100 µM for the first, 10 to 49.9 µM for the second. The second is the more potent here.

`CN1C(=O)C(CC(=O)NC2=CCCCC2)Sc2ncccc21` (stereo not shown) [Example 20, N-(cyclohex-1-en-1-yl)-2-(1-methyl-2-oxo-2,3-dihydro-1H-pyrido[2,3-b][1,4]thiazin-3-yl)acetamide] and `CN1C(=O)C(CC(=O)NC2CCCCCC2)Sc2ncccc21` (stereo not shown) [Example 23, N-cycloheptyl-2-(1-methyl-2-oxo-2,3-dihydro-1H-pyrido[2,3-b][1,4]thiazin-3-yl)acetamide] fall in the same range of EC50: 10 to 49.9 µM for the first, 10 to 49.9 µM for the second.

First: CCN1C(=O)C(CC(=O)NCc2ccncc2)Sc2ncccc21 (stereo not shown) [Example 42, 2-(1-ethyl-2-oxo-2,3-dihydro-1H-pyrido[2,3-b][1,4]thiazin-3-yl)-N-(pyridin-4-ylmethyl)acetamide]
Second: O=C(CC1CNc2cccnc2S1)NCC1CCCCC1 (stereo not shown) [Example 92, N-(cyclohexylmethyl)-2-(2,3-dihydro-1H-pyrido[2,3-b][1,4]thiazin-3-yl)acetamide]
The EC50 of the first is higher: over 100 µM for the first, 10 to 49.9 µM for the second.

First: O=C(CC1Nc2ncccc2NC1=O)NCC1CCCCC1 (stereo not shown) [Example 65, N-(cyclohexylmethyl)-2-(2-oxo-1,2,3,4-tetrahydropyrido[2,3-b]pyrazin-3-yl)acetamide]
Second: O=C(CC1Oc2ncccc2NC1=O)NCC1CCCCC1 (stereo not shown) [Example 91, N-(cyclohexylmethyl)-2-(2-oxo-2,3-dihydro-1H-pyrido[2,3-b][1,4]oxazin-3-yl)acetamide]
The EC50 of the first is higher: over 100 µM for the first, 10 to 49.9 µM for the second. The second is the more potent here.

In the case of `O=C(CC1Cc2ncccc2NC1=O)NCC1(F)CCCCC1` (stereo not shown) [Example 89, N-((1-fluorocyclohexyl)methyl)-2-(2-oxo-1,2,3,4-tetrahydro-1,5-naphthyridin-3-yl)acetamide], the EC50 is reported as 10 to 49.9 µM.
